This is an account of results in ChEMBL document CHEMBL1201862, “PubChem BioAssay data set” (2004).

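Exposure lasted 48 hours, with cells grown in 96-well plates and compounds tested at five concentrations. Here, GI50 denotes the concentration required for 50% inhibition of growth.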 Activity calls are given as the source filed them. Cut-off read from the data, not from the text of the source: active = GI50 up to about 1.1 µM and inactive = higher.

Among the test systems are HCC 2998; PC-3; MOLT-4; EKVX; UACC-257; RXF 393; MCF7; CCRF-CEM; SN12C; HT-29; NCI-H23; T47D; SK-MEL-5; 786-0; MDA-N; NCI-H522; SF-539; SNB-19; OVCAR-3.
Holding throughout (assay): DTP human tumour cell line panel, 48 h

For orientation: GI50 means the concentration at which growth is held to half of that of the control. In the case of `COc1c(F)c(F)c(C(=O)/C=C2\Nc3ccccc3NC2=O)c(F)c1F`, the GI50 with HCC 2998 is > 10 µM (inactive); in the experiment with PC-3, 7.57 µM (inactive); with MOLT-4, > 10 µM (inactive); with EKVX it was > 10 µM (inactive); with UACC-257, > 10 µM (inactive); in the experiment on RXF 393 it was 9.51 µM (inactive). Besides, the GI50 in the experiment with MCF7 was > 10 µM (inactive); in the experiment with CCRF-CEM it was > 10 µM (inactive); in the experiment with SN12C, > 10 µM (inactive); in the experiment with HT-29 it was 6.98 µM (inactive); in the experiment on NCI-H23, > 10 µM (inactive); in the experiment on T47D, 4.67 µM (inactive). For the same compound, the GI50 in the experiment with SK-MEL-5 was 8.95 µM (inactive); in the experiment on 786-0 it was 2.32 µM (inactive); with MDA-N, > 10 µM (inactive).
As for `Cc1cc2nc(O)c(CCC(=O)O)nc2cc1C`, the GI50 in the experiment with HCC 2998 is > 100 µM (inactive); with MOLT-4, > 100 µM (inactive); in the experiment with EKVX, > 100 µM (inactive); in the experiment on NCI-H522 it was 83.8 µM (inactive); in the experiment on UACC-257, > 100 µM (inactive); with RXF 393, > 100 µM (inactive). Besides, the GI50 in the experiment on CCRF-CEM, with SN12C, with HT-29, in the experiment with SF-539, in the experiment with SNB-19 and with NCI-H23 was > 100 µM (inactive) throughout. Further, the GI50 with OVCAR-3, in the experiment on SK-MEL-5 and with 786-0 was > 100 µM (inactive) in each case.
On to `COC(=O)/C(C#N)=C1\CCC(OC)N1C` (stereo not given), for which the GI50 with HCC 2998, with MOLT-4, in the experiment on EKVX, in the experiment on NCI-H522, in the experiment with UACC-257 and in the experiment on RXF 393 was > 100 µM (inactive) throughout. Besides, the GI50 in the experiment with CCRF-CEM, with SN12C, in the experiment on HT-29, in the experiment with SF-539, in the experiment on SNB-19 and in the experiment on NCI-H23 was > 100 µM (inactive) throughout. In addition, the GI50 with OVCAR-3, with SK-MEL-5 and with 786-0 was > 100 µM (inactive) in each case.
In the case of `NC1=NS(=O)(=O)N=C(N)C1=Cc1ccc([N+](=O)[O-])o1`, the GI50 was 22.1 µM (inactive) in the experiment on HCC 2998; 12.6 µM (inactive) in the experiment with MOLT-4; 17.9 µM (inactive) with EKVX; 17.7 µM (inactive) in the experiment with NCI-H522; 15.5 µM (inactive) in the experiment with UACC-257; 18.8 µM (inactive) in the experiment on RXF 393. Besides, the GI50 is 9.33 µM (inactive) in the experiment on CCRF-CEM; 16.5 µM (inactive) in the experiment with SN12C; 18.2 µM (inactive) in the experiment with HT-29; 18.3 µM (inactive) with SF-539; 32.8 µM (inactive) in the experiment with SNB-19; 17.3 µM (inactive) in the experiment with NCI-H23. The GI50 in the experiment with OVCAR-3 is 18.1 µM (inactive); with SK-MEL-5 it was 15.3 µM (inactive); in the experiment with 786-0, 17.1 µM (inactive).
With `C1CN(P2(N3CC3)=NP(N3CC3)(N3CC3)=NP(N3CC3)(N3CC3)=N2)CCO1` (stereo not given) [FOTRETAMINE], the GI50 is > 100 µM (inactive) in the experiment on HCC 2998; 8.2 µM (inactive) in the experiment on MOLT-4; > 100 µM (inactive) with EKVX; > 100 µM (inactive) in the experiment on NCI-H522; 83.8 µM (inactive) in the experiment with UACC-257; > 100 µM (inactive) in the experiment on RXF 393. Also, the GI50 in the experiment with CCRF-CEM was 23 µM (inactive); with SN12C, > 68.2 µM (inactive); with HT-29, > 100 µM (inactive); with SF-539, 44.8 µM (inactive); with SNB-19, > 100 µM (inactive); in the experiment on NCI-H23, 27.4 µM (inactive). For the same compound, the GI50 was > 100 µM (inactive) in the experiment on OVCAR-3, > 100 µM (inactive) in the experiment with SK-MEL-5 and 55.3 µM (inactive) with 786-0.
For `Cc1ccccc1/C=C/c1csnn1`, the GI50 in the experiment on HCC 2998, in the experiment on MOLT-4, with EKVX, with NCI-H522, in the experiment with UACC-257 and with RXF 393 was > 100 µM (inactive) throughout. Also, the GI50 is 60.3 µM (inactive) in the experiment on CCRF-CEM; > 100 µM (inactive) with SN12C; > 100 µM (inactive) in the experiment with HT-29; > 100 µM (inactive) in the experiment with SF-539; > 100 µM (inactive) with SNB-19; > 100 µM (inactive) in the experiment on NCI-H23. In addition, the GI50 with OVCAR-3, in the experiment with SK-MEL-5 and with 786-0 was > 100 µM (inactive) throughout.
Turning to `O=C1NC(=S)NC(=O)C1=Cc1ccc2ccccc2n1`, the GI50 in the experiment with HCC 2998, with MOLT-4, with EKVX, in the experiment with NCI-H522, in the experiment on UACC-257 and in the experiment on RXF 393 was > 100 µM (inactive) in each case. The GI50 in the experiment on CCRF-CEM, in the experiment on SN12C, in the experiment with HT-29, with SF-539, with SNB-19 and in the experiment with NCI-H23 was > 100 µM (inactive) throughout. Also, the GI50 with OVCAR-3, in the experiment with SK-MEL-5 and in the experiment with 786-0 was > 100 µM (inactive) throughout.
Turning to `COC(=O)C1=Cc2cc(OC)c(OC)c(OC)c2[C@H](c2cc(OC)c(OC)c(OC)c2)C1C(=O)OC` (stereo not given in full), the GI50 in the experiment on HCC 2998, in the experiment on MOLT-4, in the experiment with EKVX, in the experiment on NCI-H522, in the experiment on UACC-257 and with RXF 393 was > 100 µM (inactive) in each case. Also, the GI50 in the experiment on CCRF-CEM, in the experiment with SN12C, with HT-29, in the experiment on SF-539, in the experiment with SNB-19 and in the experiment on NCI-H23 was > 100 µM (inactive) in each case. Also, the GI50 with OVCAR-3, with SK-MEL-5 and in the experiment on 786-0 was > 100 µM (inactive) in each case.
As for `CN(C)Cc1cc(C(C)(C)C)cc(C2CCCCC2)c1O`, the GI50 is 13.6 µM (inactive) in the experiment on PC-3; 10.8 µM (inactive) with MOLT-4; 11.9 µM (inactive) in the experiment on EKVX; 20.2 µM (inactive) in the experiment with NCI-H522; 10.1 µM (inactive) in the experiment with UACC-257; 12.6 µM (inactive) with RXF 393. Besides, the GI50 is 18.3 µM (inactive) in the experiment on MCF7; 13.5 µM (inactive) with CCRF-CEM; 15.7 µM (inactive) in the experiment with SN12C; 2.86 µM (inactive) in the experiment on HT-29; 10.9 µM (inactive) in the experiment with SF-539; 13 µM (inactive) in the experiment with SNB-19. Moreover, the GI50 with NCI-H23 was 24.9 µM (inactive); in the experiment on OVCAR-3, 14.2 µM (inactive); in the experiment on T47D, 3.58 µM (inactive); in the experiment on SK-MEL-5, 14.4 µM (inactive); in the experiment on 786-0 it was 20.7 µM (inactive).
Consider `O=C1CC2=CCCC2O1` (stereo not given), for which the GI50 in the experiment on HCC 2998, in the experiment with MOLT-4, in the experiment on EKVX, in the experiment with NCI-H522, in the experiment with UACC-257 and in the experiment on RXF 393 was > 100 µM (inactive) each time. Further, the GI50 in the experiment with CCRF-CEM, in the experiment on SN12C, in the experiment on HT-29, in the experiment with SF-539, in the experiment on SNB-19 and in the experiment with NCI-H23 was > 100 µM (inactive) throughout. Moreover, the GI50 in the experiment on OVCAR-3, with SK-MEL-5 and in the experiment with 786-0 was > 100 µM (inactive) each time.
Take `CN(C)CC1CC/C(=C\c2ccc(Cl)cc2)C1=O` (stereo not given): the GI50 was 4.69 µM (inactive) in the experiment on HCC 2998; 0.561 µM (active) in the experiment with MOLT-4; 12.7 µM (inactive) with EKVX; 3.48 µM (inactive) in the experiment with NCI-H522; 8.17 µM (inactive) in the experiment on UACC-257; 3.16 µM (inactive) with RXF 393. Further, the GI50 in the experiment with MCF7 was 1.87 µM (inactive); in the experiment on CCRF-CEM, 0.611 µM (active); with SN12C it was 7.67 µM (inactive); in the experiment with HT-29 it was 5.71 µM (inactive); in the experiment with SF-539 it was 13.7 µM (inactive); with SNB-19 it was 15.8 µM (inactive). For the same compound, the GI50 with NCI-H23 is 8.13 µM (inactive); with OVCAR-3 it was 7.35 µM (inactive); in the experiment on SK-MEL-5, 11.9 µM (inactive); in the experiment with 786-0 it was 2.2 µM (inactive).
Turning to `CC1CC2C3CCC4=CC(=O)C=CC4(C)C3(F)C(O)CC2(C)C1(O)C(=O)CO.Cc1nnc(NS(=O)(=O)c2ccc(/N=N/c3cc(/N=N/c4ccc(S(=O)(=O)Nc5nnc(C)s5)cc4)c4c(NC(=O)C(Cl)Cl)cccc4c3OC(=O)C(Cl)Cl)cc2)s1`, the GI50 with HCC 2998 was 21.3 µM (inactive); in the experiment with MOLT-4 it was 5.53 µM (inactive); in the experiment on EKVX it was 34.4 µM (inactive); with NCI-H522 it was 21.6 µM (inactive); with UACC-257 it was 38.5 µM (inactive); with RXF 393, 21.2 µM (inactive). Moreover, the GI50 with CCRF-CEM is 1.08 µM (active); with SN12C it was 3.3 µM (inactive); in the experiment with HT-29 it was 8.85 µM (inactive); in the experiment on SF-539 it was 18.9 µM (inactive); in the experiment on SNB-19 it was 48.5 µM (inactive); in the experiment with NCI-H23, 12.1 µM (inactive). The GI50 was 19.2 µM (inactive) with OVCAR-3, 22.4 µM (inactive) in the experiment with SK-MEL-5 and 25.6 µM (inactive) in the experiment on 786-0.
For the compound `CCN(CC)C(=S)N/N=C1\C(=O)Nc2ccccc21`, the GI50 with PC-3 was 0.334 µM (active); in the experiment on MOLT-4, 0.653 µM (active); in the experiment with EKVX, 1.36 µM (inactive); in the experiment with NCI-H522, 3.03 µM (inactive); in the experiment on UACC-257, 1.64 µM (inactive); in the experiment on RXF 393, 1.3 µM (inactive). Also, the GI50 was 0.397 µM (active) with MCF7; 0.347 µM (active) with CCRF-CEM; 1.46 µM (inactive) in the experiment on SN12C; 1.18 µM (inactive) with HT-29; 0.468 µM (active) in the experiment on SF-539; 1.69 µM (inactive) in the experiment with SNB-19. For the same compound, the GI50 in the experiment on NCI-H23 was 2.9 µM (inactive); with OVCAR-3 it was 0.192 µM (active); with SK-MEL-5, 0.193 µM (active); in the experiment with 786-0, 0.432 µM (active); in the experiment with MDA-N, 2.01 µM (inactive).
